Consider 23 molecules from patent US8937078B2, “Quinazolinones as prolyl hydroxylase inhibitors” (Janssen Pharmaceutica NV, priority 2009, dated 2015).

The structures appear in SMILES notation. Where a name gives a salt, the structure may show the parent alone.

One assay concerns the target T1, human PHD2 (PHD2181-417) (Homo sapiens, UniProt Q9GZT9).
T1 construct: Smt (SUMO) tag (cleaved yes); made in house; host or cells: E. coli BL21 (pBAD vector)
As to the kind of experiment: PHD enzymatic assay ([14C]-succinic acid production). The assay is classed as biochemical. As to conditions: PHD2181-417, HIF-1α peptide 10 μM, average of results; read-out: Enzyme pIC50 (converted). On the procedure: Protein production was achieved by expression in BL21 cells grown in Terrific Broth containing 100 μg/ml ampicillin. Cell cultures were inoculated at 37° C. and grown to an OD600 of 0.8. Cultures were induced with 0.1% arabinose and grown overnight at 20° C. with continuous shaking at 225 rpm. Cells were then harvested by centrifugation and stored at −80° C. Cell pellets were suspended in Buffer A (50 mM Tris-HCl pH 7.2, 100 mM NaCl, 100 mM L-arginine, 1 mM TCEP, 0.05% (w/v) NP-40, 50 mM imidazole) followed by the addition of lysozyme and benzonase. Cells were lysed by sonication and the lysate was cleared by centrifugation (15,000 rpm, 90 min, 4° C.). The protein was purified by nickel affinity chromatography using a HisTrap Crude FF column (GE Healthcare). Samples were eluted in Buffer A with a 50-200 mM imidazole gradient. […] The flow-through was then dialyzed into 50 mM MES pH 6.0, 1 mM TCEP, 5 mM NaCl for ion exchange chromatography on a HiTrap SP Cation Exchange column (GE Healthcare). […] Fractions were pooled for further purification by size exclusion chromatography over a Superdex 75 Size Exclusion Column (GE Healthcare). Final protein was concentrated to 4 mg/ml and dialyzed in 10 mM PIPES pH 7.0, 100 mM NaCl, 0.5 mM TCEP.
(10 μM, California Peptide Research Inc., Napa, Calif.), and [5-^14C]-2-oxoglutaric acid (50 mCi/mmol, Moravek Chemicals, Brea, Calif.) in reaction buffer (40 mM Tris-HCl, pH 7.5, 0.4 mg/ml catalase, 0.5 mM DTT, 1 mM ascorbate) for 10 minutes. The reaction was stopped by addition of 50 μl of 70 mM H3PO4 and 50 μl of 500 mM NaH2PO4, pH3.2. Detection of [^14C]-succinic acid was achieved by separating from [5-^14C]-2-oxoglutaric acid by incubating the reaction mixture with 100 μl of 0.16 M DNP prepared in 30% perchloric acid. Next, 50 μl of unlabeled 20 mM 2-oxoglutaric acid/20 mM succinic acid, serving as carrier for the radioactivity, was added to the mixture, and was allowed to proceed for 30 minutes at room temperature. The reaction was then incubated with 50 μl of 1 M 2-oxoglutaric acid for 30 additional minutes at room temperature to precipitate the excess DNP. The reaction was then centrifuged at 2800×g for 10 minutes at room temperature to separate [^14C]-succinic acid in the supernatant from the precipitated [^14C]-dinitrophenylhydrazone. Fractions of the supernatant (400 μl) were counted using a beta counter (Beckman Coulter, Fullerton, Calif.).

The next assay relates to Hep-3B cells. The experiment in a line: Cellular assay: erythropoietin secretion in Hep-3B cells. The assay is classed as cell-based, human. As to conditions: Homo sapiens, Hep3B, 100 μM compound, 24 hours, percent of EPO secretion relative to assay control compound 7-[(4-Chloro-phenyl)-(5-methyl-isoxazol-3-ylamino)-methyl]-quinolin-8-ol, read-out: Cellular % EPO Stimulation. On the procedure: Hep-3B cells (ATCC, Manassas, Va.) were plated in 96-well plates at 20,000 cells per well in 100 μl of DMEM containing 10% fetal bovine serum, 1% non-essential amino acids, 50 IU/mL of penicillin and 50 μg/mL of streptomycin (all cell culture reagents from Invitrogen, Carlsbad, Calif.). Twenty-four hours after plating, compounds were added and incubated for an additional 24 hours. All compounds were tested under saturating conditions with final compound concentrations at 100 μM. Fifty microliters of the supernatant was then transferred to a human Hypoxia assay kit (Meso-Scale Discovery, Gaithersburg, Md.). Erythropoietin in the supernatant was detected according to the manufacturer's instructions as follows. EPO detection plates were blocked with 3% BSA in PBS overnight and 50 μl of the supernatant was incubated at room temperature in an orbital shaker for 2 h. Twenty-five microliters of 0.5 μg/ml anti-EPO detection antibody was added for 2 hours at room temperature in an orbital shaker. After 3 washes in PBS, 150 μl of 1× read buffer is added and the plate is then read on the MSD SECTOR instrument.

T1 sequence (Q9GZT9 181-417): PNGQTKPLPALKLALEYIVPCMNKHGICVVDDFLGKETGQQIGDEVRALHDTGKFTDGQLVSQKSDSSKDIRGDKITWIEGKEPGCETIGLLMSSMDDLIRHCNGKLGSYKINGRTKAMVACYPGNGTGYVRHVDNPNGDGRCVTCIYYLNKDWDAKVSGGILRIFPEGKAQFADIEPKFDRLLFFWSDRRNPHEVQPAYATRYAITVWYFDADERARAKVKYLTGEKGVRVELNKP

Turning to `O=C(O)c1cnn(-c2nc3ccc(C(=O)N4CCCC4)cc3c(=O)[nH]2)c1` [Example 162, 1-[4-Oxo-6-(pyrrolidine-1-carbonyl)-3,4-dihydro-quinazolin-2-yl]-1H-pyrazole-4-carboxylic acid], the IC50 at human PHD2 (PHD2181-417) was 31.6 nM. Besides, in the assay with Hep-3B cells, the Emax at 100 µM came out at 15%.

For `COc1ccc(Sc2cc3c(=O)nc(-n4cc(C(=O)O)cn4)[nH]c3cc2Cl)cc1OC` [Example 26, 1-[7-Chloro-6-(3,4-dimethoxy-phenylsulfanyl)-4-oxo-1,4-dihydro-quinazolin-2-yl]-1H-pyrazole-4-carboxylic acid], the IC50 on human PHD2 (PHD2181-417) is 31.6 nM. In the assay with Hep-3B cells, the Emax at 100 µM turned out to be 55%.

Turning to `COc1cc2nc(-n3cc(C(=O)O)cn3)[nH]c(=O)c2cc1Oc1c(C)cccc1C` [Example 61, 1-[6-(2,6-Dimethyl-phenoxy)-7-methoxy-4-oxo-3,4-dihydro-quinazolin-2-yl]-1H-pyrazole-4-carboxylic acid], the IC50 at human PHD2 (PHD2181-417) was 20 nM. In addition, in the assay on Hep-3B cells, the Emax at 100 µM came out at 86%.

Take `O=C(O)c1cnn(-c2nc3cc(Cl)c(Oc4ccc(Cl)cc4)cc3c(=O)[nH]2)c1` [Example 48, 1-[7-Chloro-6-(4-chloro-phenoxy)-4-oxo-3,4-dihydro-quinazolin-2-yl]-1H-pyrazole-4-carboxylic acid]: on human PHD2 (PHD2181-417), the IC50 was 31.6 nM. In the assay with Hep-3B cells, the Emax at 100 µM was found to be 51%.

For `O=C(O)c1cnn(-c2nc3c4c(ccc3c(=O)[nH]2)OCCO4)c1` [Example 138, 1-(8-Oxo-2,3,7,8-tetrahydro-1,4-dioxa-5,7-diaza-phenanthren-6-yl)-1H-pyrazole-4-carboxylic acid], the IC50 at human PHD2 (PHD2181-417) was 251 nM. In addition, in the assay with Hep-3B cells, the Emax at 100 µM is 40%.

For `O=C(O)c1cnn(-c2nc3ccc(NCc4ccccc4)cc3c(=O)[nH]2)c1` [Example 171, 1-(6-Benzylamino-4-oxo-3,4-dihydro-quinazolin-2-yl)-1H-pyrazole-4-carboxylic acid], the IC50 at human PHD2 (PHD2181-417) was 25.1 nM. In addition, in the assay with Hep-3B cells, the Emax at 100 µM was found to be 34%.

Take `CCOc1ccc2c(=O)[nH]c(-n3cc(C(=O)O)cn3)nc2c1` [Example 152, 1-(7-Ethoxy-4-oxo-3,4-dihydro-quinazolin-2-yl)-1H-pyrazole-4-carboxylic acid]: on human PHD2 (PHD2181-417), the IC50 was 158 nM. In the assay on Hep-3B cells, the Emax at 100 µM was 38%.

As to `CC(C)Oc1ccc2c(=O)[nH]c(-n3cc(C(=O)O)cn3)nc2c1` [Example 149, 1-(7-Isopropoxy-4-oxo-3,4-dihydro-quinazolin-2-yl)-1H-pyrazole-4-carboxylic acid], the IC50 on human PHD2 (PHD2181-417) was 398 nM. Further, the Emax at 100 µM with Hep-3B cells was found to be 9%.

As for `O=C(O)c1cnn(-c2nc3cc(F)c(Oc4c(Cl)cccc4Cl)cc3c(=O)[nH]2)c1` [Example 50, 1-[6-(2,6-Dichloro-phenoxy)-7-fluoro-4-oxo-3,4-dihydro-quinazolin-2-yl]-1H-pyrazole-4-carboxylic acid], the IC50 at human PHD2 (PHD2181-417) was 31.6 nM. In the assay with Hep-3B cells, the Emax at 100 µM was determined as 67%.

Take `O=C(O)c1cnn(-c2nc3cc(F)c(F)cc3c(=O)[nH]2)c1` [Example 5, 1-(6,7-Difluoro-4-oxo-3,4-dihydro-quinazolin-2-yl)-1H-pyrazole-4-carboxylic acid, trifluoroacetate salt]: the IC50 at human PHD2 (PHD2181-417) is 20 nM. The Emax at 100 µM in the assay with Hep-3B cells was 21%.

For the molecule `O=C(O)c1cnn(-c2nc3ccc(Oc4cccc(Cl)c4)cc3c(=O)[nH]2)c1` [Example 30, 1-[6-(3-Chloro-phenoxy)-4-oxo-3,4-dihydro-quinazolin-2-yl]-1H-pyrazole-4-carboxylic acid], the IC50 on human PHD2 (PHD2181-417) was 25.1 nM. Further, in the assay on Hep-3B cells, the Emax at 100 µM turned out to be 15%.

With `O=C(O)c1cnn(-c2nc3ccc(-c4ccccc4OC(F)(F)F)cc3c(=O)[nH]2)c1` [Example 202, 1-[4-Oxo-6-(2-trifluoromethoxy-phenyl)-3,4-dihydro-quinazolin-2-yl]-1H-pyrazole-4-carboxylic acid], the IC50 at human PHD2 (PHD2181-417) was 15.8 nM. Further, the Emax at 100 µM with Hep-3B cells was 29%.

With `Cc1ccc(Oc2cc3c(=O)[nH]c(-n4cc(C(=O)O)cn4)nc3cc2C)cc1C` [Example 92, 1-[6-(3,4-dimethyl-phenoxy)-7-methyl-4-oxo-3,4-dihydro-quinazolin-2-yl]-1H-pyrazole-4-carboxylic acid], the IC50 at human PHD2 (PHD2181-417) was 20 nM. The Emax at 100 µM in the assay with Hep-3B cells stood at 137%.

Take `O=C(O)c1cnn(-c2nc3ccc(Oc4c(Cl)cccc4Cl)cc3c(=O)[nH]2)c1` [Example 38, 1-[6-(2,6-Dichloro-phenoxy)-4-oxo-3,4-dihydro-quinazolin-2-yl]-1H-pyrazole-4-carboxylic acid]: the IC50 at human PHD2 (PHD2181-417) is 20 nM. For the same molecule, the Emax at 100 µM with Hep-3B cells amounted to 91%.

Regarding `O=C(O)c1cnn(-c2nc3ccc(-c4cccc(-c5ccccc5)c4)cc3c(=O)[nH]2)c1` [Example 70, 1-(6-Biphenyl-3-yl-4-oxo-3,4-dihydro-quinazolin-2-yl)-1H-pyrazole-4-carboxylic acid], on human PHD2 (PHD2181-417), the IC50 is 31.6 nM. Besides, the Emax at 100 µM with Hep-3B cells turned out to be 41%.

For `COc1cccc2c(=O)[nH]c(-n3cc(C(=O)O)cn3)nc12` [Example 7, 1-(8-Methoxy-4-oxo-3,4-dihydro-quinazolin-2-yl)-1H-pyrazole-4-carboxylic acid], the IC50 at human PHD2 (PHD2181-417) is 158 nM. The Emax at 100 µM in the assay with Hep-3B cells amounted to 25%.

Consider `O=C(O)c1cnn(-c2nc3ccc(I)cc3c(=O)[nH]2)c1` [Example 12, 1-(6-Iodo-4-oxo-3,4-dihydro-quinazolin-2-yl)-1H-pyrazole-4-carboxylic acid], for which, on human PHD2 (PHD2181-417), the IC50 is 25.1 nM. Further, the Emax at 100 µM in the assay with Hep-3B cells stood at 50%.

`O=C(O)c1cnn(-c2nc3cc(Cl)c(-c4ccccc4)cc3c(=O)[nH]2)c1` [Example 68, 1-(7-Chloro-4-oxo-6-phenyl-3,4-dihydro-quinazolin-2-yl)-1H-pyrazole-4-carboxylic acid]: the IC50 at human PHD2 (PHD2181-417) was 20 nM. The Emax at 100 µM with Hep-3B cells was determined as 59%.

For `O=C(O)c1cnn(-c2nc3cc(F)c(Oc4cc(Cl)ccc4Cl)cc3c(=O)[nH]2)c1` [Example 87, 1-[6-(2,5-dichloro-phenoxy)-7-fluoro-4-oxo-3,4-dihydro-quinazolin-2-yl]-1H-pyrazole-4-carboxylic acid], the IC50 on human PHD2 (PHD2181-417) was 20 nM. The Emax at 100 µM with Hep-3B cells amounted to 84%.

For `O=C(O)c1cnn(-c2nc3ccc(NC(=O)c4ccccc4)cc3c(=O)[nH]2)c1` [Example 165, 1-(6-Benzoylamino-4-oxo-3,4-dihydro-quinazolin-2-yl)-1H-pyrazole-4-carboxylic acid], on human PHD2 (PHD2181-417), the IC50 was 25.1 nM. The Emax at 100 µM in the assay with Hep-3B cells was found to be 19%.

As for `CN(C)c1ccc2c(=O)[nH]c(-n3cc(C(=O)O)cn3)nc2c1` [Example 150, 1-(7-Dimethylamino-4-oxo-3,4-dihydro-quinazolin-2-yl)-1H-pyrazole-4-carboxylic acid], on human PHD2 (PHD2181-417), the IC50 was 158 nM. Moreover, the Emax at 100 µM in the assay with Hep-3B cells was determined as 24%.

Turning to `O=C(O)c1cnn(-c2nc3cc(F)ccc3c(=O)[nH]2)c1` [Example 133, 1-(7-Fluoro-4-oxo-3,4-dihydro-quinazolin-2-yl)-1H-pyrazole-4-carboxylic acid], the IC50 at human PHD2 (PHD2181-417) was 39.8 nM. Moreover, the Emax at 100 µM in the assay with Hep-3B cells worked out at 10%.

Turning to `O=C(O)c1cnn(-c2nc3cc4c(cc3c(=O)[nH]2)CCC4)c1` [Example 140, 1-(4-Oxo-4,6,7,8-tetrahydro-3H-cyclopenta[g]quinazolin-2-yl)-1H-pyrazole-4-carboxylic acid], the IC50 at human PHD2 (PHD2181-417) was 35.5 nM. In the assay on Hep-3B cells, the Emax at 100 µM turned out to be 62%.
